# Laboratory results published in PMC4747864 (Molecular cancer therapeutics, 2015).
# “Also recorded” adds a separate entry of the source. Where a SMILES comes first, the peptide text is derived from it. Bridges are numbered along the chain shown (N, C = ends). [ ]: non-standard residue; d: D form. dPen = CC(C)(S)[C@@H](N)C(=O)O; βAla = NCCC(=O)O
# Experiments:
# [1] = target: T1, αvβ3 integrin (αvβ3-K562 cells) (Homo sapiens, UniProt P05106+P06756); conditions: earlier study; cited from earlier work
# [2] = target: T2, α5β1 integrin (parent K562 cells) (Homo sapiens, UniProt P05556+P08648); conditions: earlier study; cited from earlier work
# [3] = test system: glioblastoma U-87MG or melanoma A375M xenograft models; conditions: in vivo and ex vivo optical imaging, U-87MG or A375M xenograft models; cited from earlier work
# [4] = target: T3, αvβ5 integrin (αvβ5-K562 cells) (Homo sapiens, UniProt P06756+P18084); conditions: earlier study; cited from earlier work
# [5] = target: T4, αIIbβ3 integrin (αIIbβ3-K562 cells) (Homo sapiens, UniProt P05106+P08514); conditions: earlier study; cited from earlier work
# [6] = target: αvβ3 integrin (K562/αvβ3+ cells) (Homo sapiens, UniProt P05106+P06756); assay type: binding; conditions: for decrease (loss) of binding affinity / potency relative to LXW7: versus parent LXW7
# [7] = target: T2, α5β1 integrin (parent K562 cells); assay type: binding; conditions: 1μM biotinylated LXW64, then streptavidin-PE, flow cytometry
# [8] = target: T1, αvβ3 integrin (αvβ3-K562 cells); assay type: binding; conditions: 1μM biotinylated LXW64, then streptavidin-PE, flow cytometry
# [9] = target: T3, αvβ5 integrin (αvβ5-K562 cells); assay type: binding; conditions: 1μM biotinylated LXW64, then streptavidin-PE, flow cytometry
# [10] = target: T4, αIIbβ3 integrin (αIIbβ3-K562 cells); assay type: binding; conditions: 1μM biotinylated LXW64, then streptavidin-PE, flow cytometry
# [11] = test system: U-87MG glioblastoma cells; assay: Binding to U-87MG glioblastoma cells in vitro; assay type: cell-based
molecule,measurement,setting,value
"CC(C)[C@H]1NC(=O)[C@@H](CC(=O)O)NC(=O)[C@H](CC(=O)O)NC(=O)CNC(=O)[C@H](CCCNC(=N)N)NC(=O)CNC(=O)[C@H](N)CSSC[C@H](C(N)=O)NC1=O [peptide 1, cGRGDdvc-NH2] (H-[dC]GRGD[dD][dV][dC]-NH2; disulfide 1-8 (inferred); N-terminus assumed)",binding to αvβ3 integrin,[1],strongly
same,binding to α5β1 integrin,[2],no binding
same,liver uptake,[3],low liver uptake
same,tumor uptake,[3],excellent tumor uptake
same,binding to αvβ5 integrin,[4],weakly
same,binding to αIIbβ3 integrin,[5],weakly
"CC(C)[C@H]1NC(=O)[C@@H](CC(=O)O)NC(=O)[C@H](CC(=O)O)NC(=O)CNC(=O)[C@H](CCCNC(=N)N)NC(=O)CNC(=O)[C@@H](N)CSSC[C@H](C(N)=O)NC1=O [peptide 2, CGRGDdvc-NH2] (H-CGRGD[dD][dV][dC]-NH2; disulfide 1-8 (inferred); N-terminus assumed)",decrease (loss) of binding affinity / potency relative to LXW7,[6],10 fold
"CC(C)[C@H]1NC(=O)[C@@H](CC(=O)O)NC(=O)[C@H](CC(=O)O)NC(=O)CNC(=O)[C@H](CCCNC(=N)N)NC(=O)CNC(=O)[C@H](N)CSSC[C@@H](C(N)=O)NC1=O [peptide 3, cGRGDdvC-NH2] (H-[dC]GRGD[dD][dV]C-NH2; disulfide 1-8 (inferred); N-terminus assumed)",decrease (loss) of binding affinity / potency relative to LXW7,[6],16 fold
"CC(C)[C@H]1NC(=O)[C@@H](CC(=O)O)NC(=O)[C@H](CC(=O)O)NC(=O)CNC(=O)[C@H](CCCNC(=N)N)NC(=O)CNC(=O)[C@@H](N)CSSC[C@@H](C(N)=O)NC1=O [peptide 4, CGRGDdvC-NH2] (H-CGRGD[dD][dV]C-NH2; disulfide 1-8 (inferred); N-terminus assumed)",binding affinity compared with LXW7 (in words),[6],complete loss of binding affinity
"CC(C)[C@H]1NC(=O)[C@@H](CC(=O)O)NC(=O)[C@H](CC(=O)O)NC(=O)CNC(=O)[C@H](CCCNC(=N)N)NC(=O)CNC(=O)[C@H](N)C(C)(C)SSC[C@H](C(N)=O)NC1=O [peptide 5, DPen-GRGDdvc-NH2] (H-[dPen]GRGD[dD][dV][dC]-NH2; disulfide 1-8 (inferred); N-terminus assumed)",decrease (loss) of binding affinity / potency relative to LXW7,[6],4 to 10 fold
"CC(C)[C@H]1NC(=O)[C@@H](CC(=O)O)NC(=O)[C@H](CC(=O)O)NC(=O)CNC(=O)[C@H](CCCNC(=N)N)NC(=O)CNC(=O)[C@H](N)CSSC(C)(C)[C@H](C(N)=O)NC1=O [peptide 6, cGRGDdv-DPen-NH2] (H-[dC]GRGD[dD][dV][dPen]-NH2; disulfide 1-8 (inferred); N-terminus assumed)",decrease (loss) of binding affinity / potency relative to LXW7,[6],4 to 10 fold
"CC(C)[C@H]1NC(=O)[C@@H](CC(=O)O)NC(=O)[C@H](CC(=O)O)NC(=O)CNC(=O)[C@H](CCCNC(=N)N)NC(=O)CNC(=O)[C@H](N)C(C)(C)SSC(C)(C)[C@H](C(N)=O)NC1=O [peptide 7, DPen-GRGDdv-DPen-NH2] (H-[dPen]GRGD[dD][dV][dPen]-NH2; disulfide 1-8 (inferred); N-terminus assumed)",decrease (loss) of binding affinity / potency relative to LXW7,[6],4 to 10 fold
"CC(C)[C@H]1NC(=O)[C@@H](CC(=O)O)NC(=O)[C@H](CC(=O)O)NC(=O)CNC(=O)[C@H](CCCNC(=N)N)NC(=O)[C@@H](C)NC(=O)[C@H](N)CSSC[C@H](C(N)=O)NC1=O [peptide 8, caRGDdvc-NH2] (H-[dC][dA]RGD[dD][dV][dC]-NH2; disulfide 1-8 (inferred); N-terminus assumed)",decrease (loss) of binding affinity / potency relative to LXW7,[6],7.8 fold
"CC(C)[C@H]1NC(=O)[C@@H](CC(=O)O)NC(=O)[C@H](CC(=O)O)NC(=O)CNC(=O)[C@H](CCCNC(=N)N)NC(=O)CCNC(=O)[C@H](N)CSSC[C@H](C(N)=O)NC1=O [peptide 9, c-βala-RGDdvc-NH2] (H-[dC][βAla]RGD[dD][dV][dC]-NH2; disulfide 1-8 (inferred); N-terminus assumed)",decrease (loss) of binding affinity / potency relative to LXW7,[6],11 fold
"N=C(N)NCCC[C@@H]1NC(=O)CNC(=O)[C@H](N)CSSC[C@H](C(N)=O)NC(=O)[C@@H](Cc2cccc3ccccc23)NC(=O)[C@@H](CC(=O)O)NC(=O)[C@H](CC(=O)O)NC(=O)CNC1=O [peptide 40, cGRGDd-DNal1-c-NH2]",binding to parent K562 cells (α5β1),[7],no binding
same,binding to αvβ3-K562 cells,[8],strongly; also recorded: significant positive binding
same,higher binding affinity than LXW7,[6]; versus LXW7,6.6 fold
same,binding to αvβ5-K562 cells,[9],weakly
same,binding to αIIbβ3-K562 cells,[10],weakly
same,binding to U-87MG glioblastoma cells,[11],binding strongly
R3-cGRGDdvc-NH2 [compound 20],binding affinity compared with LXW7 (in words),[6],modest loss of potency
R4-cGRGDdvc-NH2 [compound 21],binding affinity compared with LXW7 (in words),[6],modest loss of potency
